This note sets out measurements from publication PMC8025945 (Journal of medicinal chemistry, 2017).

The target of series [1] is T1, recombinant Top1 (Homo sapiens, UniProt P11387).
T1 sequence (P11387 1-765): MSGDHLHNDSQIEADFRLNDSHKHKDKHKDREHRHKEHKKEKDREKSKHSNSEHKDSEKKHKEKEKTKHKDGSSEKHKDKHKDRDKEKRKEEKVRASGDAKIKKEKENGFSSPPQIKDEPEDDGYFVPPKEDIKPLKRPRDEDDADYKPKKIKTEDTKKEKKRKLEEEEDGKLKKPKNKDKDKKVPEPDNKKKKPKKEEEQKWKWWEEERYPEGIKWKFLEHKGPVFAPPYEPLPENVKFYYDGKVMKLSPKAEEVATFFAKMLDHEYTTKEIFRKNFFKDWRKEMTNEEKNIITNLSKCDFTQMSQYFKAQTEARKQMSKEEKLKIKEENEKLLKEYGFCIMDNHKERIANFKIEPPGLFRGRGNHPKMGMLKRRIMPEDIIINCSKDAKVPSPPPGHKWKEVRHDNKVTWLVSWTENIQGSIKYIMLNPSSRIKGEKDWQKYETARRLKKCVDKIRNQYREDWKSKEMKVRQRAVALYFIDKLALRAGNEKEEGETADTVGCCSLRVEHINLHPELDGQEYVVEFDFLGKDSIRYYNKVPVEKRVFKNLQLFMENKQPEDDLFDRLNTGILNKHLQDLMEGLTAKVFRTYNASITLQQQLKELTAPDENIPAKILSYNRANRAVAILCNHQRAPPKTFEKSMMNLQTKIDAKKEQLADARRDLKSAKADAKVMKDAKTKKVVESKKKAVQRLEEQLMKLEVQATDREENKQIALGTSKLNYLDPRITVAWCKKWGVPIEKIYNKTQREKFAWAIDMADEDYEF
Kind of series: Top1-mediated DNA cleavage assay. In kind it is biochemical. As to conditions: semiquantitative scale relative to 1 μM MJ-III-65 (6) and 1 μM camptothecin (1).

The subject of series [2] is SF-539. Kind of series: NCI-60 human tumor cell line screen, CNS SF-539. The note with it: read-out: cytotoxicity (GI50) CNS SF-539; 50% growth inhibition.
Series [3] relates to HOP-62. Put plainly: NCI-60 human tumor cell line screen, lung HOP-62. As to conditions: read-out: cytotoxicity (GI50) lung HOP-62; 50% growth inhibition.
Series [4] concerns SN12C. Put plainly: NCI-60 human tumor cell line screen, renal SN12C. As to conditions: read-out: cytotoxicity (GI50) renal SN12C; 50% growth inhibition.
The subject of series [5] is MCF-7. Kind of series: NCI-60 human tumor cell line screen, breast MCF-7. The note with it: read-out: cytotoxicity (GI50) breast MCF-7; 50% growth inhibition.
Series [6] relates to HCT-116. Kind of series: NCI-60 human tumor cell line screen, colon HCT-116. As to conditions: read-out: cytotoxicity (GI50) colon HCT-116; 50% growth inhibition.
Series [7] relates to OVCAR-3. Put plainly: NCI-60 human tumor cell line screen, ovarian OVCAR-3. The note with it: read-out: cytotoxicity (GI50) ovarian OVCAR-3; 50% growth inhibition.
Series [8] has as its system DU-145. Put plainly: NCI-60 human tumor cell line screen, prostate DU-145. The note with it: read-out: cytotoxicity (GI50) prostate DU-145; 50% growth inhibition.
Series [9] has as its system UACC-62. Put plainly: NCI-60 human tumor cell line screen, melanoma UACC-62. The note with it: read-out: cytotoxicity (GI50) melanoma UACC-62; 50% growth inhibition.
Series [10] has as its system zebrafish embryos. As to conditions: statistical comparison of 9, 16b and 17b.

Take `COc1cnc2c(c1)C(=O)c1c-2n(CCCN2CCNCC2)c(=O)c2cc(Cl)ccc12` [16e, 3-Chloro-9-methoxy-6-(3-(piperazin-1-yl)propyl)-5H-pyrido[3′,2′:4,5]cyclopenta[1,2-c]isoquinoline-5,11(6H)-dione]: the “enzyme inhibitory activity Top1 (compound-induced DNA cleavage score)” value (“enzyme inhibitory activity Top1” for short) in series [1] is “+”.

Regarding `COc1cnc2c(c1)C(=O)c1c-2n(CCCNC(C)C)c(=O)c2cc(Cl)ccc12` [16f, 3-Chloro-9-methoxy-6-(3-(isopropylamino)propyl)-5H-pyrido[3′,2′:4,5]cyclopenta[1,2-c]isoquinoline-5,11(6H)-dione], the “enzyme inhibitory activity Top1” value in [1] was “++”.

For the molecule `COc1cnc2c(c1)C(=O)c1c-2n(CCCN2CCOCC2)c(=O)c2cc(F)ccc12` [17a, 3-Fluoro-9-methoxy-6-(3-morpholinopropyl)-5H-pyrido[3′,2′:4,5]cyclopenta[1,2-c]isoquinoline-5,11(6H)-dione], in series [1], the “enzyme inhibitory activity Top1” value is on record as “+++”.

On to `COc1cnc2c(c1)C(=O)c1c-2n(CCCNC2=NCCS2)c(=O)c2cc(F)ccc12` [17c, 3-Fluoro-6-(3-((4,5-dihydrothiazol-2-yl)amino)propyl)-9-methoxy-5H-pyrido[3′,2′:4,5]cyclopenta[1,2-c]isoquinoline-5,11(6H)-dione], for which the “enzyme inhibitory activity Top1” value in series [1] is given as “++”.

For `COc1cnc2c(c1)C(=O)c1c-2n(CCCN2CCC(O)CC2)c(=O)c2cc(F)ccc12` [17d, 3-Fluoro-6-(3-(4-hydroxypiperidin-1-yl)propyl)-9-methoxy-5H-pyrido[3′,2′:4,5]cyclopenta[1,2-c]isoquinoline-5,11(6H)-dione], in series [1], the “enzyme inhibitory activity Top1” value is “+”.

In the case of `COc1cnc2c(c1)C(=O)c1c-2n(CCCN2CCNCC2)c(=O)c2cc(F)ccc12` [17e, 3-Fluoro-9-methoxy-6-(3-(piperazin-1-yl)propyl)-5H-pyrido[3′,2′:4,5]cyclopenta[1,2-c]isoquinoline-5,11(6H)-dione], in series [1], the “enzyme inhibitory activity Top1” value was “+”.

For the molecule `COc1cnc2c(c1)C(=O)c1c-2n(CCCNC(C)C)c(=O)c2cc(F)ccc12` [17f, 3-Fluoro-6-(3-(isopropylamino)propyl)-9-methoxy-5H-pyrido[3′,2′:4,5]cyclopenta[1,2-c]isoquinoline-5,11(6H)-dione], the “enzyme inhibitory activity Top1” value in [1] is listed as “++”.

As to `CNCCCn1c2c(c3ccc(F)cc3c1=O)C(=O)c1cc(OC)cnc1-2` [17g, 3-Fluoro-9-methoxy-6-(3-(methylamino)propyl)-5H-pyrido[3′,2′:4,5]cyclopenta[1,2-c]isoquinoline-5,11(6H)-dione], the “enzyme inhibitory activity Top1” value in series [1] was “+”.

With `CCNCCCn1c2c(c3ccc(F)cc3c1=O)C(=O)c1cc(OC)cnc1-2` [17h, 6-(3-(Ethylamino)propyl)-3-fluoro-9-methoxy-5H-pyrido[3′,2′:4,5]cyclopenta[1,2-c]isoquinoline-5,11(6H)-dione], in series [1], the “enzyme inhibitory activity Top1” value is “++”.

Turning to `COc1cnc2c(c1)C(=O)c1c-2n(CCCN2CCCC2)c(=O)c2cc(F)ccc12` [17i, 3-Fluoro-9-methoxy-6-(3-(pyrrolidin-1-yl)propyl)-5H-pyrido[3′,2′:4,5]cyclopenta[1,2-c]isoquinoline-5,11(6H)-dione], the “enzyme inhibitory activity Top1” value in series [1] was “+++”.

As for `CC[C@@]1(O)C(=O)OCc2c1cc1n(c2=O)Cc2cc3ccccc3nc2-1` [compound 1, camptothecin], the “enzyme inhibitory activity Top1” value in series [1] is reported as “++++”.

Consider `O=C1c2ccccc2-c2c1c1ccc([N+](=O)[O-])cc1c(=O)n2CCCn1ccnc1` [compound 7], for which the “enzyme inhibitory activity Top1” value in series [1] was “++++”. The GI50 in series [2] amounted to 16 nM; in series [3], 190 nM; in series [4], 15 nM; in series [5] it was 2170 nM; in series [6], 274 nM; in series [7] it was 864 nM. In addition, the GI50 in series [8] was 17 nM; in [9] it was 12 nM.

Regarding `COc1cnc2c(c1)C(=O)c1c-2n(CCCN2CCOCC2)c(=O)c2cc([N+](=O)[O-])ccc12` [compound 10], the “enzyme inhibitory activity Top1” value in [1] was “++++”. Besides, the GI50 stood at 35 nM in [2]; 51 nM in [3]; 43 nM in series [4]; 20 nM in series [5]; 50 nM in [6]; 110 nM in [7]. Also, the GI50 in series [8] and in [9] was 40 nM each time.

On to `COc1cnc2c(c1)C(=O)c1c-2n(CCCN2CCOCC2)c(=O)c2cc(Cl)ccc12` [compound 16a, 3-Chloro-9-methoxy-6-(3-morpholinopropyl)-5H-pyrido[3′,2′:4,5]cyclopenta[1,2-c]isoquinoline-5,11(6H)-dione], for which, in series [1], the “enzyme inhibitory activity Top1” value is recorded as “+++”.

In the case of `COc1cnc2c(c1)C(=O)c1c-2n(CCCn2ccnc2)c(=O)c2cc(Cl)ccc12` [compound 16b, 3-Chloro-6-(3-(1H-Imidazol-1-yl)propyl)-9-methoxy-5H-pyrido[3′,2′:4,5]cyclopenta[1,2-c]isoquinoline-5,11(6H)-dione], in series [1], the “enzyme inhibitory activity Top1” value is recorded as “+++”. Moreover, the “lethality in zebrafish (comparison between compounds)” value in series [10] was “lethality difference between them is not significant”.

As to `COc1cnc2c(c1)C(=O)c1c-2n(CCCNC2=NCCS2)c(=O)c2cc(Cl)ccc12` [compound 16c, 3-Chloro-6-(3-((4,5-dihydrothiazol-2-yl)amino)propyl)-9-methoxy-5H-pyrido[3′,2′:4,5]cyclopenta[1,2-c]isoquinoline-5,11(6H)-dione], the “enzyme inhibitory activity Top1” value in series [1] is reported as “++”.

Consider `COc1cnc2c(c1)C(=O)c1c-2n(CCCN2CCC(O)CC2)c(=O)c2cc(Cl)ccc12` [compound 16d, 3-Chloro-6-(3-(4-hydroxypiperidin-1-yl)propyl)-9-methoxy-5H-pyrido[3′,2′:4,5]cyclopenta[1,2-c]isoquinoline-5,11(6H)-dione], for which the “enzyme inhibitory activity Top1” value in series [1] is “++++”.

With `COc1cnc2c(c1)C(=O)c1c-2n(CCCN2CCN(C)CC2)c(=O)c2cc(Cl)ccc12` [compound 16j, 3-Chloro-9-methoxy-6-(3-(4-methylpiperazin-1-yl)propyl)-5H-pyrido[3′,2′:4,5]cyclopenta[1,2-c]isoquinoline-5,11(6H)-dione], the “enzyme inhibitory activity Top1” value in series [1] is listed as “+”.

Consider `COc1cnc2c(c1)C(=O)c1c-2n(CCCn2ccnc2)c(=O)c2cc(F)ccc12` [compound 17b, 3-Fluoro-6-(3-(1H-imidazol-1-yl)propyl)-9-methoxy-5H-pyrido[3′,2′:4,5]-cyclopenta[1,2-c]isoquinoline-5,11(6H)-dione], for which the “enzyme inhibitory activity Top1” value in series [1] was “+++”. Moreover, the “lethality in zebrafish (comparison between compounds)” value in series [10] is given as “lethality difference between them is not significant”.
